Assay results reported in patent US20230173004A1, “Method and Composition for Treating Ringworm on Biotic and Abiotic Surfaces” (Jeneil Biosurfactant Company, LLC, priority 2021, published 2023).

Tested on: ringworm infection
Assay: Treatment of ringworm infections on the skin of volunteer patients
Type: in vivo, human
Settings: twin teenage boys; prescribed oral treatment
Experimental: The effectiveness of Composition A in treating fungal infections on the skin was determined on volunteer patients. In a first case, twin teenage boys were experiencing ringworm infections on the face, scalp, and neck. […] For […], the ringworm sores on […] face were treated by directly applying Composition A to the sores.
The other teenage child was treated with a 100% solution of Composition A by dabbing it on the sores of their scalp and neck using a cotton swab twice a day over the course of 3 days. Various sores were treated over the next four to seven days with a diluted solution of Composition A. In particular, a few drops of Composition A were diluted with 10 drops of water, and the diluted solution was applied to the sores. […] Thereafter, a 1:100 solution of Composition A in water was used as a preventative treatment on the scalp prior to showering to avoid new ringworm infections.
Thus, in a second test case, Composition A was used to treat a ringworm infection on the neck and shoulder region of a teenage child. Composition A was formulated with an aloe vera clear cream at a 2% w/v.
In a third case, a middle-aged person was experiencing a significant ringworm infection on one foot. The ringworm infection was treated with Composition A in an aloe vera clear cream at 2% w/v.

## OC(Cn1cncn1)(Cn1cncn1)c1ccc(F)cc1F [oral fluconazole, fluconazole]
  ringworm infections on face, scalp and neck: ineffective at completely eradicating the ringworm infection
